Series [1] concerns TGF-β induced epithelial mesenchymal transition (EMT) protein production. As to the kind of experiment: TGF-β induced EMT protein production in HepG2 cells. The format is cell-based, human. To be noted: increasing doses for 1 hour, then 200 pM TGF-β for 48 hours. The procedure:
The effects of 15-HEPE on TGF-β-induced signaling and cellular responses were determined. To test the effect of 15-HEPE on TGF-β-induced signaling, the activities of 15-HEPE to regulate TGF-β-stimulated Smad2 phosphorylation and nuclear translocation, both of which are key signaling events leading to TGF-β-induced cellular responses, were tested. One important biological activity of TGF-β is transcriptional activation of genes responsible for epithelial-mesenchymal transition (EMT), which is a crucial event in wound healing, tissue fibrosis, and cancer progression. The effect of 15-HEPE on TGFβ-induced epithelial mesenchymal transition related proteins (such as fibronectin, PAI-1, and N-cadherin etc.) expression in HepG2 and […] cells were assessed. HepG2 cells (human hepatoma cell line) were treated in increasing doses of 15-HEPE stage II in DMEM containing 0.1% of FBS for 1 hour and continually stimulated with or without 200 picomolar (pM) of TGF-β for 48 hours.
HepG2 cells (human hepatoma cell line) were treated in increasing doses of 15-HEPE stage II in DMEM containing 0.1% of FBS for 1 hour and continually stimulated with or without 200 picomolar (pM) of TGF-β for 48 hours. The two panels shown in FIG. 18A are two separate experiments run under the same experimental conditions.

Series [2] has as its system TGF-β-stimulated intracellular signaling (SMAD2/3 phosphorylation). The series is described as follows: TGF-β-stimulated SMAD2/3 phosphorylation in LX2 liver stellate cells. The class given is cell-based, human. Particulars: 0 μM to 100 μM for 24 hours, then 30 min TGF-β stimulation.
Series [3] has as its system TβR-II (type II TGF-β receptor). The series is described as follows: Sucrose density gradient analysis in Mv1Lu cells, TβR-II. To be noted: summary, free acid or ethyl ester form. The class given is cell-based, mink. The procedure: Sucrose gradient ultracentrifugation and confocal microscopy were used to identify 15-HEPE induced microdomain translocation of TGF-β receptors by sucrose. Sucrose density gradient analysis of TGF-β receptors was conducted in the plasma membranes of Mv1Lu cells (mink lung epithelial cell) treated with 100 μM of 15-HEPE and an equal volume of DMSO (dimethyl sulfoxide) at 37° C. for 0, 1, 4, and 24 hours, and the cell lysates from these treated cells were subjected to sucrose density gradient ultracentrifugation. The sucrose gradient fractions were then analyzed by Western blot analysis using anti-TβR-I (type I TGF-β receptor), anti-TβR-II (type II TGF-β receptor), anti-TβR-III (type III TGF-β receptor, betaglycan), anti-EGFR (epidermal growth factor receptor), and anti-caveolin-1 antibodies. The lipid raft/caveolae, and non-lipid raft microdomain localization of TβR-I, TβR-II, TβR-III, EGFR and caveolin-1 in the plasma membrane of untreated cells or cells treated with 15-HEPE were assessed to determine the effects of 15-HEPE on the membrane microdomain localization of the TGF-β receptors.
A 15-HEPE sucrose density gradient analysis of TGF-β receptors was conducted in the plasma membranes of mink lung epithelial cell (Mv1 Lu) cells treated with 100 μM of 15-HEPE and an equal volume of dimethyl sulfoxide (DMSO) at 37° C. for 0, 1, 4, and 24 hours, and the cell lysates from these treated cells were subjected to sucrose density gradient ultracentrifugation. The sucrose gradient fractions were then analyzed by Western blot analysis using anti-TβR-I (type I TGF-β receptor—FIG. 18C), anti-TβR-II (type II TGF-β receptor—FIG. 18D), anti-TβR-III (type III TGF-β receptor, betaglycan—FIG. 18E), anti-EGFR (epidermal growth factor receptor—FIG. 18F), and anti-caveolin-1 antibodies (FIG. 18G). Fractions 4 to 5 contained lipid rafts/caveolae whereas fractions 7-10 were non-lipid raft fractions. […] Stars (★) indicate 15-HEPE increased abundance of TβR-I (24 hours) in the fraction in comparison with that of the control and shorter treatment durations (FIG. 18C). […] The triangles (▾) indicate translocation and decreased abundance of TβR-II in the fraction in comparison with control cells (FIG. 18D).

Series [4] in a line: UUO study: body weight, kidney weight, general condition. The format is in vivo. Particulars: UUO mice. The method, then: UUO Surgery: On day 0 of the study, UUO surgery was performed on mice under pentobarbital sodium anesthesia. The mouse's hair was first shaved and then abdomen cut open to exteriorize the mouse's left ureter. The ureter was ligated 4-0 nylon sutures at two points. The mouse's peritoneum and skin were then closed with sutures, and the mouse transferred to a clean cage until recovered from the anesthesia. Sham operated mice had their left ureter exposed but not ligated. […]
Animals: Seven-week-old female C57BL/6 mice (i.e., animals) were obtained from Japan SLC, Inc. (Japan) and were housed and fed with a normal diet (CE-2; CLEA Japan, Japan) under controlled conditions. The animals were maintained in a specific-pathogen free (SPF) facility under controlled conditions of temperature (e.g., 23±2° C.), humidity (e.g., 45±10%), lighting (e.g., 12-hour artificial light and dark cycles; light from 8:00 to 20:00) and air exchange. A high pressure was maintained in the experimental room to prevent contamination of the facility. The animals were housed in TPX cages (CLEA Japan) with a maximum of 4 mice per cage. Sterilized Paper-Clean (Japan SLC) was used for bedding and replaced once a week. Sterilized solid normal diet was provided ad libitum, being placed in a metal lid on the top of the cage. Pure water was also provided ad libitum from a water bottle equipped with a rubber stopper and a sipper tube. Water bottles were replaced once a week, cleaned, and sterilized in an autoclave and reused. Mice were identified by ear punch and each cage was labeled with a specific identification code.
Animal Monitoring and Sacrifice: The viability, clinical signs and behavior for the mice were monitored daily. Individual body weight was measured daily before treatment during the treatment period. […] The animals were sacrificed by exsanguination through direct cardiac puncture under isoflurane anesthesia (Pfizer Inc.) at Day 14.

The subject of series [5] is UUO mice. The series is described as follows: UUO study: kidney hydroxyproline content. The format is in vivo, C57BL/6 mice. The procedure:
(§1) UUO Surgery: On day 0 of the study, UUO surgery was performed on mice under pentobarbital sodium anesthesia. The mouse's hair was first shaved and then abdomen cut open to exteriorize the mouse's left ureter. The ureter was ligated 4-0 nylon sutures at two points. The mouse's peritoneum and skin were then closed with sutures, and the mouse transferred to a clean cage until recovered from the anesthesia. Sham operated mice had their left ureter exposed but not ligated.
Measurement of Kidney Biochemistry: To quantify kidney hydroxyproline content, frozen left kidney samples were processed by an alkaline-acid hydrolysis method as follows: kidney samples were dissolved in 2 normal (N) sodium hydroxide (NaOH) at 65° C. and autoclaved at 121° C. for 20 minutes. The lysed samples (400 μL) were acid-hydrolyzed with 400 μL of 6N hydrochloride acid (HCl) at 121° C. for 20 minutes, and neutralized with 400 μL of 4N NaOH containing 10 mg/mL of activated carbon. An AC buffer (e.g., 2.2M acetic acid/0.48M citric acid, 400 μL) was added to the samples, followed by centrifugation to collect the supernatant. A standard curve of hydroxyproline was constructed with serial dilutions of trans-4-hydroxy-L-proline (Sigma-Aldrich, USA) starting at 16 μg/mL. The prepared samples and standards (e.g., each 400 μL) were mixed with 400 μL chloramine T solution (Wako Pure Chemical Industries, Japan) and incubated for 25 minutes at room temperature. The samples were then mixed with Ehrlich's solution (e.g., 400 μL) and heated at 65° C. for 20 minutes to develop the color. After samples were cooled on ice and centrifuged to remove precipitates, the optical density of each supernatant was measured at 560 nanometers (nm). The concentrations of hydroxyproline were calculated from the hydroxyproline standard curve. Protein concentrations of kidney samples were determined using a bicinchoninic (BCA) protein assay kit (Thermo Fisher Scientific, USA) and used to normalize the calculated hydroxyproline values. Kidney hydroxyproline contents were expressed as microgram (μg) per mg protein.

Series [6] relates to UUO mice. As to the kind of experiment: UUO study: Sirius red staining of kidney sections, fibrosis area. The class given is in vivo, C57BL/6 mice. Particulars: for Sirius red-positive area: kidney. The procedure:
as §1
Histopathological analysis: To visualize collagen deposition, kidney sections were stained using picro-Sirius red solution (Waldeck, Germany). For quantification of interstitial fibrosis area, bright field images in the corticomedullary region were captured using a digital camera (e.g., DFC295; Leica Microsystems, Germany) at 200-fold magnification, and the positive areas in 5 fields/section were measured using ImageJ software (National Institute of Health, USA).

Setting [7] is: 50 mg/kg PO QD Day 0-13, Day 14.
Setting [8] is: 250 mg/kg PO QD Day 0-13, Day 14.

Entries after “also recorded” stand apart in the source; their conditions may differ.

As for `CCC=CCC(O)C=CC=CCC=CCC=CCCCC(=O)OCC` (stereo not shown) [15-HEPE EE], in series [1], the “TGF-β induced EMT (pro-fibrotic) protein production” value is “blocked TGF-β induced pro-fibrotic protein production”. Besides, the “TGF-β-stimulated intracellular signaling (SMAD2/3 phosphorylation)” value in series [2] is “inhibited TGF-β induced intracellular signaling (SMAD2/3)”. Also, the “translocation and degradation of type II TGF-β receptors” value in series [3] is “induced translocation and degradation of type II TGF-β receptors”.

`CCCCCC(O)/C=C/C=C\C/C=C\CCCCCCC(=O)O` (stereo not shown) [DS109, 15-hydroxy-eicosa-8Z,11Z,13E-trienoic acid]: the “Body Weight” value in series [4] (5 mg/kg PO QD Day 0-13, Day 14) worked out at 19.1 ± 0.9 g; in series [4] (setting [7]) it was 18.6 ± 0.6 g; in series [4] (setting [8]) it was 18.6 ± 0.7 g. Besides, the “kidney hydroxyproline contents compared with the Vehicle group” value with UUO mice [5] (5 mg/kg) is reported as “significant decreases”; with UUO mice [5] (50 mg/kg), “no significant difference”; in the series with UUO mice [5] (250 mg/kg) it was “significant decreases”. The Kidney hydroxyproline amounted to 9.94 ± 2.02 μg/mg total protein in the series with UUO mice [5] (5 mg/kg PO QD Day 0-13, Day 14); 13.94 ± 6.44 μg/mg total protein in the series on UUO mice [5] (setting [7]); 8.30 ± 1.04 μg/mg total protein with UUO mice [5] (setting [8]). Further, the “fibrosis area compared with the Vehicle group” value is recorded as “tended to decrease; also recorded: reduction trend” in the series with UUO mice [6] (5 mg/kg, Mann-Whitney U test (p<0.1)); “tended to decrease” in the series with UUO mice [6] (50 mg/kg, Bonferroni Multiple Comparison); “tended to decrease; also recorded: reduction trend” with UUO mice [6] (50 mg/kg, Mann-Whitney U test (p<0.1)); “tended to decrease; also recorded: reduction trend” in the series on UUO mice [6] (250 mg/kg, Mann-Whitney U test (p<0.1)). Moreover, the Sirius red-positive area is listed as 4.23 ± 1.90% with UUO mice [6] (5 mg/kg PO QD Day 0-13, Day 14); 3.58 ± 1.04% in the series with UUO mice [6] (setting [7]); 4.71 ± 0.96% in the series with UUO mice [6] (setting [8]).
